Data on four molecules can be found in patent publication US20180084782A1, “METHOD OF CONTROL OF STINKBUGS” (Syngenta Participations AG, priority 2015, published 2018).

Where two headings read alike, the source gives them in different places.

The test system of this assay is Euschistus heros (neotropical brown stink bug). In words: Insecticidal activity against Euschistus heros: contact/feeding activity on sprayed soybean plants. Type of assay: in vivo. The following applies: 120 h. How it is done: Insecticidal activity against Euschistus heros (neotropical brown stink bug): contact/feeding activity of compounds 1 and 3 according to the invention and 2 and 4 as comparison:
Two week old soybean plants were sprayed in a turn table spray chamber with the diluted spray solutions. After drying, two soybean seeds were added and plants were infested with ten N-2 nymphs of the neotropical brown stink bug Euschistus heros in plastic test boxes. Boxes were incubated in a climate chamber at 25° C. and 60% relative humidity. Evaluation is done 5 days after infestation on mortality and growth effect.

Setting [1] is: 0.2 ppm spray, N-2 nymphs on soybean plants, evaluation 5 days after infestation, read-out: Mortality (%).
The mark [2] stands for this setting: 0.8 ppm spray, N-2 nymphs on soybean plants, evaluation 5 days after infestation, read-out: Mortality (%).
Setting [3] is: 3 ppm spray, N-2 nymphs on soybean plants, evaluation 5 days after infestation, read-out: Mortality (%).

For the molecule `Cn1nc(C(F)(F)C(F)(F)F)c(C(F)(F)F)c1-n1cc(-c2ccc(Cl)c(C(=O)NC3CC3)c2)cn1` [Compound 1], the mortality (as a rule, the percentage killed) at 0.0125 ppm was 35%; the mortality at 0.05 ppm is 50%; the mortality at 0.2 ppm was determined as 95%; the mortality at 0.8 ppm was found to be 100%. The molecule further displayed a mortality at 3 ppm of 100%.
Take `Cn1nc(C(F)(F)C(F)(F)F)c(C(F)(F)F)c1-n1cc(-c2ccc(Cl)c(C(=O)NC3CC3)c2)nn1` [Compound 2, reference compound]: the mortality at 0.0125 ppm (0.0125 ppm spray, N-2 nymphs on soybean plants, evaluation 5 days after infestation, read-out: Mortality (%)) was found to be 0%. The mortality at 0.05 ppm (0.05 ppm spray, N-2 nymphs on soybean plants, evaluation 5 days after infestation, read-out: Mortality (%)) stood at 10%. The mortality at 0.2 ppm under setting [1] is 20%. In addition, the mortality at 0.8 ppm under setting [2] turned out to be 35%. Under setting [3], the mortality at 3 ppm worked out at 100%.
On to `Cn1nc(C(F)(F)C(F)(F)F)c(C(F)(F)F)c1-n1cc(-c2ccc(Cl)c(C(=O)NC3(C#N)CC3)c2)cn1` [Compound 3], for which the mortality at 0.0125 ppm turned out to be 15%, the mortality at 0.05 ppm amounted to 35%, the mortality at 0.2 ppm was 95% and the mortality at 0.8 ppm amounted to 95%. Also, the mortality at 3 ppm worked out at 100%.
With `Cn1nc(C(F)(F)C(F)(F)F)c(C(F)(F)F)c1-n1cc(-c2ccc(Cl)c(C(=O)NC3(C#N)CC3)c2)nn1` [Compound 4, reference compound], under setting [1], the mortality at 0.2 ppm turned out to be 0%. Also, the mortality at 0.8 ppm under setting [2] was 20%. Also, the mortality at 3 ppm under setting [3] amounted to 95%.
